What is called IC50 is the concentration that inhibits the measured activity by half.

Test [1] deals with cell migration induced by MCP-1 in human blood monocytes. The test is described as follows: Activity for inhibiting cell migration induced by MCP-1 (human blood monocytes). Type of test: cell-based. The note with it: Monocyte, 2 h, 20 ng/ml recombinant human MCP-1, 37° C., two hours.
A further test deals with Rat Carotid Artery. As to the kind of experiment: Suppressing thickening of intima after trauma to rat carotid artery endothelium by balloon catheter. Type of test: in vivo, Wistar rat. The note with it: for thickening of the neointima of the carotid artery (in words) / Suppression rate (intima thickening): 3.2 μg/rat/hr s.c.; for Intima (area) / Media (area) / Intima/Media: 3.2 μg/rat/hr s.c. miniosmotic pump, day 14, average ± standard error; for Intima (area): 3 days before to 11 days after surgery; for Intima (area) / Intima/Media: * p < 0.05 vs control; for Suppression rate (intima thickening): (1-T/C)×100 of Intima/Media. The procedure: The test was performed in the following manner in accordance with the method of Clowes et al. (Lab. Invest., 49, 206, 1983). Male Wistar rats of a body weight of 300 to 350 g were used. The neck of each rat was opened under anesthesia by sodium pentobarbitol, then a balloon catheter (Fogarty, 2F) was inserted from the right external carotid artery until the starting portion of the common carotid artery. The balloon was expanded by saline to an extent causing a light resistance, then the catheter was pulled out in that state up to the carotid artery to give trauma to the intima. This procedure was repeated three times, then the catheter was withdrawn and the external carotid artery was ligated. After 14 days, the chest was opened under anesthesia by diethyl ether, refluxing and immobilization were performed from the aorti arch by a Karnoa solution (methanol:chloroform:acetic acid=6:3:1), then the right common carotid artery was excised and immobilized by neutral formalin solution. The immobilized carotid artery was dyed by Elastica van Gieson dye, then the areas of the media and thickened portion of the intima were measured by an image resolution device (LUZEX2D).
The test compound began to be administered subcutaneously at a rate of 3.2 μg/rat/hr using a miniosmotic pump buried in the back of the rat from three days before the surgery and was continued until 11 days after the surgery. The activity of the test compound in suppressing intima thickening was found from the following formula.

The test system of another test is Rabbit Carotid Artery. The test is described as follows: Suppressing thickening of intima after trauma to rabbit carotid artery endothelium by balloon catheter. Type of test: in vivo, New Zealand white rabbit. The procedure:
The test was performed in the following manner in accordance with the method of Clowes et al. (Lab. Invest., 49, 206, 1983). Use was made of New Zealand white rabbits (male) of approximately 4 kg body weight. The neck portion of each rabbit was opened under anesthesia by sodium pentobarbitol, then a balloon catheter (Fogarty, 3F) was inserted from the right external carotid artery until the starting portion of the common carotid artery. The balloon was expanded by saline to an extent causing a light resistance, then the catheter was pulled out in that state up to the carotid artery to give trauma to the intima. This procedure was performed once, then the catheter was withdrawn and the external carotid artery was ligated. After 10 days, the chest was opened under anesthesia by pentobarbitol and the right common carotid artery was removed and immobilized by a neutral formalin solution. The immobilized carotid artery was dyed by Elastica van Gieson dye, then the areas of the media and intima were measured by an image resolution device (LUZEX2D).
The test compound began to be administered subcutaneously at a rate of 32 μg/rabbit/hr using a miniosmotic pump buried in the back of the rabbit from three days before the surgery and was continued until 10 days after the surgery. The activity of the test compound in inhibiting intima thickening was found from the following formula.
Intima thickening suppression rate (%)=(1-T/C)×100

For another test, the system named is rat platelet. The test is described as follows: Rat platelet aggregation inhibiting activity. To be noted: rat platelet rich plasma; adenosine 2-phosphate induced; 37° C., one minute. Type of test: cell-based. The procedure: (§1) Wistar rats (males, approximately 400 g) were made to fast for one day, the entire blood was removed from the chest artery under anesthesia by ether, then a 1/10 volume of 3.8% aqueous solution of sodium citrate was added and immediately mixed in. The solution was centrifuged at 1000 rpm for 10 minutes, then the upper layer was used as the platelet rich plasma. The lower layer was centrifuged at 3000 rpm for 10 minutes and the upper layer of that was used as the platelet poor plasma. The platelet rich plasma was diluted by the platelet poor plasma to give a number of platelets of 3.5×10^8 /mm^3. This was used for the measurement. Note that the measurement of the platelets was performed using an automatic blood cell counter MEK-4500 (Nihon Koden). The measurement of the platelet aggregation was performed by measuring the turbidity using an NBS HEMA TRACER 801 (M.C. Medical). 90 μl of the platelet solution was inserted in a cuvette, then 5 μl each of the test compounds was added to give the target final concentration. The result was heated for one minute at 37° C., then 5 μl of a 100 μM aqueous solution of adenosine 2-phosphate (M.C. Medical) was added to induce platelet aggregation. The aggregation inhibiting activity was found from the following formula.
(§2) Aggregation inhibiting rate (%)={1-(maximum change of turbidity at time of
(§3) addition of drug)/(maximum change of turbidity at time of non-addition of
(§4) Further, the concentration of the compound giving 50% inhibition was used as the IC50.

The subject of another test is human platelet. The test is described as follows: Human platelet aggregation inhibiting activity. Type of test: cell-based. The note with it: 5 min, human plasma, adenosine 2-phosphate induced, 5 minutes at 37° C. The procedure: as §1, §2, §3, §4
50 ml portions of venous blood supplied from healthy human volunteers were used to prepare the platelet rich plasma and the platelet poor plasma in the same way as above. The measurement of the platelet aggregation was performed in the same way as above. However, unlike with the measurement of the rat platelet aggregation inhibiting activity, the test compound was added to the platelet poor plasma in advance and warmed for 5 minutes at 37° C., then the platelet rich plasma was added to give a number of platelets of 3.5×10^8 /mm^3. At the same time, 5 μl of 100 μM an aqueous solution of adenosine 2-phosphate (M.C. Medical) was added to induce platelet aggregation. The aggregation inhibiting activity was calculated in the same way as mentioned above.

Where [2] appears, read: 32 μg/rabbit/hr s.c. miniosmotic pump, day 10, average ± standard error.

Regarding `CCCCC(C)CC(O)/C=C/[C@@H]1C(SCCCCCC(=O)OC)=C(OC(=O)CCC)C[C@H]1O` (stereo partly drawn), the half-inhibitory concentration (IC50) in test [1] came out at 1 nM. For the compound `CCCC[C@@H](C)C[C@H](O)/C=C/[C@@H]1C(SCCCCCC(=O)OC)=C(OC(=O)CCC)C[C@H]1O` [Example 2, methyl(11R,12S,13E,15S,17R)-9-butyryloxy-11,15-dihydroxy-17,20-dimethyl-7-thiaprosta-8,13-dienoate], in the test with Rat Carotid Artery, the “thickening of the neointima of the carotid artery (in words)” value is listed as “suppresses the thickening of the neointima of the carotid artery”, the “Intima (area)” value was 0.155 mm^2, the “Media (area)” value was 0.197 mm^2 and the Intima/Media was 0.758. For the same compound, the “Suppression rate (intima thickening)” value in the test with Rat Carotid Artery amounted to 45.8%. Besides, the “Intima (area)” value with Rabbit Carotid Artery (32 μg/rabbit/hr s.c. miniosmotic pump, 3 days before to 10 days after surgery, day 10, average ± standard error) is listed as 0.055 mm^2. For the same compound, in the test with Rabbit Carotid Artery (setting [2]), the Intima/Media was 0.152 and the “Media (area)” value stood at 0.367 mm^2. Besides, in the test on Rabbit Carotid Artery ((1-T/C)×100 of Intima/Media, 32 μg/rabbit/hr s.c.), the “Suppression rate (intima thickening)” value amounted to 29.9%.

For `CCCC(=O)OC1=C(SCCCCCC(=O)OC)[C@@H](/C=C/[C@@H](O)C2CCCCC2)[C@H](O)C1` [Example 17, methyl(11R,12S,13E,15S)-9-butyryloxy-11,15-dihydroxy-15-cyclohexyl-16,17,18,19,20-pentanor-7-thiaprosta-8,13-dienoate], in the test with Rat Carotid Artery, the “thickening of the neointima of the carotid artery (in words)” value is given as “suppresses the thickening of the neointima of the carotid artery”, the “Intima (area)” value is 0.167 mm^2, the “Media (area)” value is 0.211 mm^2 and the Intima/Media came out at 0.784. Moreover, the “Suppression rate (intima thickening)” value with Rat Carotid Artery is 37.5%.

The compound `CCCCC(C)C[C@H](O)/C=C/[C@@H]1C(SCCCCCC(=O)OC)=C(OC(=O)CCC)C[C@H]1O` (stereo partly drawn) [drawing 170] registered an IC50 in the test with rat platelet of 129 nM. The same measure, in the same setting: in the case of `CCCC(=O)OC1=C(SCCCCCC(=O)OC)[C@@H](/C=C/[C@@H](O)C2CCCC2)[C@H](O)C1` [drawing 176] it was 284 nM. The same measure, in the same setting: in the case of `CCCC(=O)OC1=C(SCCCCCC(=O)OC)[C@@H](/C=C/[C@@H](O)C2CCCCC2)[C@H](O)C1` [drawing 177] it was 73 nM; in that of `CCCCC(C)C[C@H](O)/C=C/[C@@H]1C(SCCCCCC(=O)OC)=C(OC(=O)c2ccccc2)C[C@H]1O` (stereo partly drawn) [drawing 179], 700 nM. On the same count and under the same terms, the result for `CCCC(=O)OC1=C(SCCCCCC(=O)OC)[C@@H](/C=C/C(O)CCCc2ccccc2)[C@H](O)C1` (stereo partly drawn) [drawing 180] reads 290 nM. On to `CCCCC[C@H](O)/C=C/[C@@H]1C(SCCCCCC(=O)O)=C(OC(=O)CCC)C[C@H]1O` [drawing 181], for which half-maximal inhibition with rat platelet (IC50) was put at 300 nM. `CCCC(=O)OC1=C(SCCCCCC(=O)OC)[C@@H](/C=C/[C@@H](O)C2CCCCC2)[C@H](O)C1` [drawing 182] came in with an IC50 with human platelet of 120 nM. Still for that read-out and setting: the result for `CCCCC(C)C[C@H](O)/C=C/[C@@H]1C(SCCCCCC(=O)OC)=C(OC(=O)CCC)C[C@H]1O` (stereo partly drawn) [drawing 183] reads 58 nM. The same measure, in the same setting: the result for `CCCC(=O)OC1=C(SCCCCCC(=O)OC)[C@@H](/C=C/C(O)Cc2ccccc2)[C@H](O)C1` (stereo partly drawn) [drawing 184] reads 50 nM. In the case of `CCCC(=O)OC1=C(SCCCCCC(=O)OC)[C@@H](/C=C/C(O)[C@H](C)c2ccccc2)[C@H](O)C1` (stereo partly drawn) [drawing 185], the midpoint of inhibition with human platelet, the IC50, lay at 49 nM. Take `CCCC(=O)OC1=C(SCCCCCC(=O)OC)[C@@H](/C=C/C(O)C(C)c2ccccc2)[C@H](O)C1` (stereo partly drawn) [drawing 186]: in the test with human platelet, the IC50 is 105 nM. `CCCCC(C)C[C@H](O)/C=C/[C@@H]1C(SCCCOCC(=O)OC)=C(OC(=O)CCC)C[C@H]1O` (stereo partly drawn) [drawing 187]: the midpoint of inhibition with human platelet, the IC50, lay at 59 nM.

(Values after patent US5731452A, “7-thiaprostaglandins and method of production thereof” (Teijin Limited, priority 1994, dated 1998).)
